Experimental findings from US20090137396A1, “Piperazine Compounds with a Herbicidal Action” (BASF SE, priority 2006, published 2009) are described below.

Structures are written as SMILES.

For the first series, the system named is Amaranthus retroflexus (AMARE). Kind of series: greenhouse experiment, pre-emergence treatment, AMARE. In kind it is in vivo. To be noted: pre-emergence method, application rate 1 kg/ha; scale from 0 to 100. An excerpt:
(§1) The seeds of the test plants were sown separately for each species. For the pre-emergence treatment, the active ingredients, which had been suspended or emulsified in water, were applied directly after sowing by means of finely distributing nozzles. The containers were irrigated gently to promote germination and growth and subsequently covered with transparent plastic hoods until the plants had rooted. This cover causes uniform germination of the test plants, unless this has been impaired by the active ingredients. Depending on the species, the plants were kept at 10-25° C. or 20-35° C. The test period extended over 2 to 4 weeks. During this time, the plants were tended, and their response to the individual treatments was evaluated. Evaluation was carried out using a scale from 0 to 100. 100 means no emergence of the plants, or complete destruction of at least the aerial moieties, and 0 means no damage, or normal course of growth. Good herbicidal activity is given for values of at least 70 and very good herbicidal activity is given for values of at least 85. The plants used in the greenhouse experiments belonged to the following species: [table]
On to `CN1C(=O)C(Cc2ccccc2)N(C(=O)c2ccccc2)C(=O)C1=Cc1ccccc1C#N` (stereo not shown) [Example 137], for which the “herbicidal activity against AMARE” value is reported as “good (Good herbicidal activity is given for values of at least 70)”.

Another series deals with test plants. Kind of series: greenhouse experiment, post-emergence treatment, species not stated. In kind it is in vivo. The following applies: post-emergence method; scale from 0 to 100. An excerpt:
(§2) The seeds of the test plants were sown separately for each species. For the post-emergence treatment, the test plants were first grown to a height of 3 to 15 cm, depending on the plant habit, and only then treated with the active ingredients which had been suspended or emulsified in water. For this purpose, the test plants were either sown directly and grown in the same containers, or they were first grown separately as seedlings and transplanted into the test containers a few days prior to treatment. Depending on the species, the plants were kept at 10-25° C. or 20-35° C. The test period extended over 2 to 4 weeks. During this time, the plants were tended, and their response to the individual treatments was evaluated. Evaluation was carried out using a scale from 0 to 100. 100 means no emergence of the plants, or complete destruction of at least the aerial moieties, and 0 means no damage, or normal course of growth. Good herbicidal activity is given for values of at least 70 and very good herbicidal activity is given for values of at least 85. The plants used in the greenhouse experiments belonged to the following species: [table]
As for `CN1C(=O)C(Cc2ccccc2)N(C)C(=O)C1=Cc1ccccc1-c1nccs1` (single isomer, unassigned) [Example 44], the herbicidal activity entry is listed as “good to very good”.

Take `CN1C(=O)C(Cc2ccccc2)N(C)C(=O)C1=C(Br)c1ccccc1C#N` (stereo not shown) [Example 160]: the herbicidal activity entry is “good to very good”.

Turning to `CN1C(=O)C(Cc2ccccc2)N(C)C(=O)C1=Cc1ccccc1-c1cccs1` (stereo not shown) [Example 49], the herbicidal activity entry is given as “good to very good”.

Take `CN1C(=O)C(Cc2ccccc2)N(C)C(=O)C1=Cc1ccccc1-c1ccco1` (single isomer, unassigned) [Example 47]: the herbicidal activity entry is reported as “good to very good”.

Turning to `C=Cc1ccccc1C=C1C(=O)N(C)C(Cc2ccccc2)C(=O)N1C` (single isomer, unassigned) [Example 129], the herbicidal activity result was “good to very good”.

Turning to `CCN1C(=O)C(Cc2ccccc2)N(CC)C(=O)C1=Cc1ccccc1Br` (stereo not shown) [Example 170], the herbicidal activity entry was “good to very good”.

For `CN1C(=O)C(Cc2ccccc2)N(C)C(=O)C1=Cc1ccccc1-c1cccnc1` (stereo not shown) [Example 51], the herbicidal activity result is on record as “good to very good”.

Consider `Cc1coc(-c2ccccc2C=C2C(=O)N(C)C(Cc3ccccc3)C(=O)N2C)n1` (single isomer, unassigned) [Example 52], for which the herbicidal activity result was “good to very good”.

On to `CN1C(=O)C(Cc2ccccc2)N(C)C(=O)C1=Cc1ccccc1-c1ccco1` (single isomer, unassigned) [Example 48], for which the herbicidal activity result is “good to very good”.

In the case of `CN1C(=O)[C@H](Cc2ccccc2)N(C)C(=O)C1=Cc1ccccc1[N+](=O)[O-]` (stereo in doubt) [Example 1, 3-Benzyl-1,4-dimethyl-6-(2-nitrobenzylidene)piperazine-2,5-dione], the herbicidal activity entry was “good to very good”.

Turning to `CN1C(=O)C(Cc2ccccc2)N(C)C(=O)C1=Cc1cc2c(cc1[N+](=O)[O-])OCO2` (single isomer, unassigned) [Example 16], the herbicidal activity result is “good to very good”.

For the molecule `Cc1cccc([N+](=O)[O-])c1C=C1C(=O)N(C)C(Cc2ccccc2)C(=O)N1C` (single isomer, unassigned) [Example 13], the herbicidal activity entry was “good to very good”.

Tested on in the next series: not given
Test: not given
Conditions: not given
On to `CN1C(=O)C(Cc2ccccc2)N(C)C(=O)C1=Cc1c[nH]c2cccc([N+](=O)[O-])c12` (stereo not shown) [185], for which the melting point – broadly, the temperature, or range, at which the solid turns liquid – came out at 238 °C.

Molecule `CN1C(=O)C(Cc2ccccc2)N(C)C(=O)C1=Cc1c(C#N)ccc(F)c1F` (stereo not shown) [Example 115, 3-Benzyl-1,4-dimethyl-6-(2-cyano-5,6-difluorobenzylidene)piperazine-2,5-dione] showed a melting point of 175 °C.

For the molecule `CN1C(=O)C(Cc2ccccc2)N(C)C(=O)C1=Cc1c[nH]c2cccc([N+](=O)[O-])c12` (stereo not shown) [184], the melting point turned out to be 159 °C.

With `CN1C(=O)C(Cc2ccccc2)N(C)C(=O)C1=Cc1c[nH]c2cccc(Br)c12` (stereo not shown) [Example 199], the melting point worked out at 236 °C.

`CN1C(=O)C(Cc2ccccc2)N(C)C(=O)C1=Cc1ccncc1[N+](=O)[O-]` (stereo not shown) [Example 196]: the melting point was determined as 180 °C.

In turn, `CN1C(=O)C(Cc2ccccc2)N(C)C(=O)C1=Cc1cccnc1C#N` (stereo not shown) [Example 205] registered a melting point of 218 °C.

`CN1C(=O)C(Cc2ccccc2)N(C)C(=O)C1=Cc1ncccc1[N+](=O)[O-]` (stereo not shown) [Example 198] registered a melting point of 165 °C.

Regarding `CN1C(=O)C(Cc2ccccc2)N(C)C(=O)C1=Cc1ccncc1[N+](=O)[O-]` (stereo not shown) [Example 197], the melting point worked out at 175 °C.

Another series concerns SETIT. Kind of series: greenhouse experiment, pre-emergence treatment, SETIT. In kind it is in vivo. To be noted: pre-emergence method, application rate 3 kg/ha; scale from 0 to 100.
Text: as §1
As for `CN1C(=O)C(Cc2cccs2)N(C)C(=O)C1=Cc1ccccc1I` (stereo not shown) [Example 214], the “herbicidal activity against SETIT” value is given as “good (Good herbicidal activity is given for values of at least 70)”.

Another series has as its system Avena fatua (AVEFA). Kind of series: greenhouse experiment, pre-emergence treatment, AVEFA. In kind it is in vivo. To be noted: pre-emergence method, application rate 1 kg/ha; scale from 0 to 100.
Text: as §1
As to `CN1C(=O)C(Cc2ccccc2)N(C)C(=O)C1=Cc1cnccc1I` (stereo not shown) [Example 206], the “herbicidal activity against AVEFA” value is “good (Good herbicidal activity is given for values of at least 70)”.

In the next series the test system is test plants. Kind of series: greenhouse experiment, pre-emergence treatment, species not stated. In kind it is in vivo. To be noted: pre-emergence method; scale from 0 to 100.
Text: as §1
For the molecule `CN1C(=O)C(Cc2ccccc2)N(C)C(=O)C1=Cc1ccsc1[N+](=O)[O-]` (stereo not shown) [Example 191], the herbicidal activity result is “good to very good”.

With `CN1C(=O)C(Cc2ccccc2)N(C)C(=O)C1=Cc1ccccc1C(F)(F)F` (stereo not shown) [Example 54], the herbicidal activity result is recorded as “good to very good”.

For the molecule `Cc1cc(-c2ccccc2C=C2C(=O)N(C)C(Cc3ccccc3)C(=O)N2C)on1` (single isomer, unassigned) [Example 147], the herbicidal activity entry was “good to very good”.

On to `CN1C(=O)C(Cc2ccccc2)N(C)C(=O)C1=Cc1c(Cl)cccc1I` (stereo not shown) [Example 40], for which the herbicidal activity result was “good to very good”.

Regarding `CN1C(=O)C(Cc2ccccc2)N(C)C(=O)C1=Cc1cnccc1I` (stereo not shown) [Example 206], the herbicidal activity result is “good to very good”.

Take `CN1C(=O)C(Cc2ccccc2)N(C)C(=O)C1=Cc1c(F)cccc1I` (stereo not shown) [Example 38]: the herbicidal activity entry was “good to very good”.

On to `CN1C(=O)C(Cc2ccccc2)N(C)C(=O)C1=Cc1c(Br)ccc(F)c1F` (stereo not shown) [Example 119, 3-benzyl-1,4-dimethyl-6-(2-bromo-5,6-difluorobenzylidene)piperazine-2,5-dione], for which the herbicidal activity entry is “good to very good”.

For `CN1C(=O)C(Cc2cccs2)N(C)C(=O)C1=Cc1ccccc1I` (stereo not shown) [Example 214], the herbicidal activity entry is reported as “good to very good”.

As to `CN1C(=O)C(Cc2ccccc2)N(C)C(=O)C1=Cc1cccnc1Br` (stereo not shown) [Example 204], the herbicidal activity result is recorded as “good to very good”.

In the case of `CN1C(=O)C(Cc2ccccc2)N(C)C(=O)C1=Cc1ccccc1-c1ncccn1` (single isomer, unassigned) [Example 100], the herbicidal activity result is “good to very good”.

On to `CC(=O)N1C(=O)C(=Cc2ccccc2C#N)N(C)C(=O)C1Cc1ccccc1` (stereo not shown) [Example 140], for which the herbicidal activity entry was “good to very good”.

As for `CN1C(=O)C(Cc2ccccc2)N(C)C(=O)C1=Cc1ccccc1-c1cncnc1` (stereo not shown) [Example 124], the herbicidal activity entry is given as “good to very good”.

With `CN1C(=O)C(Cc2ccccc2)N(C)C(=O)C1=Cc1ccccc1-c1ncco1` (single isomer, unassigned) [Example 45], the herbicidal activity result is “good to very good”.

For the molecule `CN1C(=O)C(Cc2ccccc2)N(C)C(=O)C1=Cc1cc(F)ccc1Br` (stereo not shown) [Example 62], the herbicidal activity entry was “good to very good”.

For `CN1C(=O)C(Cc2ccccc2)N(C)C(=O)C1=Cc1ncccc1[N+](=O)[O-]` (stereo not shown) [Example 198], the herbicidal activity result was “good to very good”.

Regarding `CN1C(=O)C(Cc2ccccc2)N(C)C(=O)C1=Cc1ccccc1-c1cnccn1` (single isomer, unassigned) [Example 109], the herbicidal activity entry is reported as “good to very good”.

As to `Cc1cc(-c2ccccc2C=C2C(=O)N(C)C(Cc3ccccc3)C(=O)N2C)on1` (single isomer, unassigned) [Example 148], the herbicidal activity entry was “good to very good”.

In the case of `CN1C(=O)C(Cc2ccccc2)N(C(=O)c2ccccc2)C(=O)C1=Cc1ccccc1C#N` (stereo not shown) [Example 137], the herbicidal activity entry is “good to very good”.

`CN1C(=O)C(Cc2ccccc2)N(C)C(=O)C1=Cc1ccccc1-c1cnccn1` (single isomer, unassigned) [Example 110]: the herbicidal activity entry is “good to very good”.

As to `CN1C(=O)C(Cc2ccccc2)N(C)C(=O)C1=Cc1ccccc1-c1ncccn1` (single isomer, unassigned) [Example 101], the herbicidal activity result is on record as “good to very good”.

Turning to `COC(=O)c1ccccc1C=C1C(=O)N(C)C(Cc2ccccc2)C(=O)N1C` (stereo not shown) [Example 73], the herbicidal activity entry is “good to very good”.

In another series the test system is Lulium perenne (LOLMU). Kind of series: greenhouse experiment, post-emergence treatment, LOLMU. In kind it is in vivo. The following applies: post-emergence method, application rate 1 kg/ha; scale from 0 to 100.
Text: as §2
As to `CN1C(=O)[C@H](Cc2ccccc2)N(C)C(=O)C1=Cc1ccccc1[N+](=O)[O-]` (stereo in doubt) [Example 1, 3-Benzyl-1,4-dimethyl-6-(2-nitrobenzylidene)piperazine-2,5-dione], the “herbicidal activity against LOLMU” value is listed as “very good (very good herbicidal activity is given for values of at least 85)”.

Another series relates to Abutilon theophrasti (ABUTH). Kind of series: greenhouse experiment, pre-emergence treatment, ABUTH. In kind it is in vivo. To be noted: pre-emergence method, application rate 3 kg/ha; scale from 0 to 100.
Text: as §1
For the molecule `COC(=O)c1ccccc1C=C1C(=O)N(C)C(Cc2ccccc2)C(=O)N1C` (stereo not shown) [Example 73], the “herbicidal activity against ABUTH” value was “good (Good herbicidal activity is given for values of at least 70)”.
